Values quoted from earlier work in patent US20070060740A1, “Protein crystal” (priority 2002, published 2007).
pIC50: −log10 of the molar value.

system: LXR; details: non-steroidal synthetic LXR ligands, background statement; read-out: binding IC50

Row | pIC50 | SMILES
2 | ~8.00 | O=C(O)Cc1cccc(OCCCN(Cc2cccc(C(F)(F)F)c2Cl)CC(c2ccccc2)c2ccccc2)c1 [GW3965, 3-(3-(2-chloro-3-trifluoromethylbenzyl-2,2-diphenylethylamino)propoxy)phenylacetic acid]
